Experimental data published in patent US20250388572A1, “USE OF HPK1 INHIBITOR IN PREVENTION AND/OR TREATMENT OF HUMAN PATHOGEN INFECTION” (priority 2022, published 2025).
Where two headings read alike, the source gives them in different places. Blank lines part the entries; values can stand above or below the molecule they belong to.

Assays:
in vivo [1] = conditions: male, Sprague Dawley, rat
Experimental: Six male Sprague Dawley rats were administrated a single dose via intravenous injection (iv, n=3) and oral administration (po, n=3), respectively. Intravenous injection was performed by formulating the compounds into 0.25 mg/ml or 0.5 mg/mL solutions using 10% DMSO/30% PEG400/60% water and administering it at a volume of 2 mL/kg. Oral administration was performed by formulating the compounds into 0.6 mg/ml or 2.0 mg/mL homogeneous suspensions using 0.5% methylcellulose and administering it at a volume of 5 mL/kg.
The pharmacokinetic parameters of the compounds were calculated using the WinNolin non-compartmental model.

[2] = Experimental: (§1) The procedure for identifying microsomal metabolites is as follows:
(§2) The compounds (test compounds and their numbers are shown below, among which compounds A1 and B1 are prepared by referring to the relevant method disclosed in CN110396087A) were weighed and dissolved into dimethyl sulfoxide to prepare a 20 mM solution. The compound stock solution was diluted with 50% acetonitrile in water (v/v) to a concentration of 1.0 mM as a working solution. Liver microsomes (20 mg/mL) were diluted to 1.27 mg/mL with 50 mM dipotassium hydrogen phosphate buffer as a liver microsome working solution. Reduced coenzyme was weighed and dissolved in 3307 μL of phosphate buffer (50 mM) to 5.0 mM as a reduced coenzyme working solution. For T=60 minutes samples, 4 μL of test working solution (1.0 mM) was added, followed by 316 μL of liver microsome working solution (1.27 mg/mL), and finally, 80 μL of reduced coenzyme working solution was added to start the reaction. For T=0 minutes samples, 316 μL of liver microsome working solution (1.27 mg/mL) was added and then 80 μL of reduced coenzyme working solution was added to start the reaction, without test solution incubation. After incubation at 37° C. for 60 minutes, 1200 μL of stop solution was added to stop the enzyme reaction. For T=0 minute samples, 4 μL of test working solution (1.0 mM) was added. The sample plate was placed on a vortexer and vortexed at 600 rpm for 5 minutes. Then, the sample plate was centrifuged at 4000 rpm for 10 minutes. The supernatant was removed, mixed, and dried at room temperature with nitrogen. The residue dried with nitrogen was redissolved in 300 μL of 10% acetonitrile (0.1% FA) solvent and then centrifuged at 4000 rpm for 15 minutes. The supernatant was transferred to a detection plate for mass spectrometry. Mass spectrometry was performed using LC/Q-Exactive plus.
(§3) 7-Ethoxycoumarin (10 μM) was selected as a positive control compound and operated in parallel with the compounds.

[3] = remark: listed apart in the source
Experimental: as §1, §2, §3

in vivo [4] = conditions: male, cynomolgus monkey
Experimental: Three male Cynomolgus macaques were administrated a single dose via intravenous injection (iv, 1 mg/kg, n=3), followed by oral administration (po, 10 mg/kg, n=3) after washing out for one week. Intravenous injection was performed by formulating the compounds into 1.0 mg/mL solutions using water or 10% DMSO/30% PEG400/water and administering it at a volume of 1 mL/kg. Oral administration was performed by formulating the compounds into 2.0 mg/mL solutions or suspensions using water or 0.5% methylcellulose/1.7 meq 1N hydrochloric acid and administering it at a volume of 5 mL/kg.
The pharmacokinetic parameters of the compounds were calculated using the non-compartmental model.

[5] = remark: listed apart in the source
Experimental: as §1, §2, §3

[6] = remark: listed apart in the source
Experimental: as §1, §2, §3

[7] = remark: listed apart in the source
Experimental: as §1, §2, §3

[8] = Solid state stability of the free base crystalline form A (HPLC); format: physicochemical; conditions: closed placement at 60° C. for 1 day

- AUC(0-t) (in vivo [1]; iv, 0.5 mg/kg): 74.8 ng·h/mL
- clearance (in vivo [1]; iv, 0.5 mg/kg): 101 mL/min/kg
- AUC(0-t) (in vivo [1]; po, 3 mg/kg): 42.8 ng·h/mL
- bioavailability (in vivo [1]; po, 3 mg/kg): 9.52%
Structure (SMILES): [2H]C([2H])(Oc1cc(-c2cnn(C3CCN(C)CC3)c2)cnc1N)c1cccc(C#CC(C)(C)O)c1 [C]

- remaining percentage of the parent cores after 60 min ([2]; beagle, dog, microsomes, 1 h, 10 µM): 0.17%
- remaining percentage of the parent cores after 60 min ([3]; mouse, microsomes, 1 h, 10 µM): 1.13%
- AUC(0-t) (in vivo [1]; iv, 1 mg/kg): 116 ng·h/mL
- clearance (in vivo [1]; iv, 1 mg/kg): 129 mL/min/kg
- AUC(0-t) (in vivo [1]; po, 10 mg/kg): 79.8 ng·h/mL
- bioavailability (in vivo [1]; po, 10 mg/kg): 6.84%
- bioavailability (in vivo [4]): 4.61%
- AUC(0-t) (in vivo [4]; iv, 1 mg/kg): 881 ng·h/mL
- clearance (in vivo [4]; iv, 1 mg/kg): 18.9 mL/min/kg
- AUC(0-t) (in vivo [4]; po, 10 mg/kg): 388 ng·h/mL
- remaining percentage of the parent cores after 60 min ([5]; cynomolgus macaque, microsomes, 1 h, 10 µM): 0.36%
- remaining percentage of the parent cores after 60 min ([6]; rat, microsomes, 1 h, 10 µM): 2.44%
- remaining percentage of the parent cores after 60 min ([7]; human, microsomes, 1 h, 10 µM): 43.84%
Structure (SMILES): CN1CCC(n2cc(-c3cnc(N)c(OCc4cccc(C#CC(C)(C)O)c4)c3)cn2)CC1 [Compound A1, reference compound]

Structure (SMILES): [2H]C([2H])([2H])N1CCC(n2cc(-c3cnc(N)c(OCc4cccc(C#CC(C)(C)O)c4)c3)cn2)CC1 [Compound A2 free base crystalline form A, 4-(3-(((2-amino-5-(1-(1-trideuteriomethylpiperidin-4-yl)-1H-pyrazol-4-yl)pyridin-3-yl)oxy)methyl)phenyl)-2-methylbut-3-yn-2-ol]
- HPLC Area (%) 60° C./1 day, peak 1 ([8]; RRT 0.95, starting sample 0.42): 0.41%
- HPLC Area (%) 60° C./1 day, peak 2 ([8]; RRT 1.00 (main peak), starting sample 99.26): 99.33%
- HPLC Area (%) 60° C./1 day, peak 3 ([8]; RRT 1.05, starting sample 0.22): 0.17%
- HPLC Area (%) 60° C./1 day, peak 4 ([8]; RRT 1.06, starting sample 0.10): 0.09%

Structure (SMILES): CN1CCC(c2ncc(-c3cnc(N)c(OCc4cccc(C#CC(C)(C)O)c4)c3)s2)CC1 [Compound B1, reference compound]
- remaining percentage of the parent cores after 60 min [2]: 0.12%
- remaining percentage of the parent cores after 60 min [3]: 1.24%
- remaining percentage of the parent cores after 60 min [5]: 9.11%
- remaining percentage of the parent cores after 60 min [6]: 11.21%
- remaining percentage of the parent cores after 60 min [7]: 51.82%

Structure (SMILES): [2H]C([2H])([2H])N1CCC(c2ncc(-c3cnc(N)c(OCc4cccc(C#CC(C)(C)O)c4)c3)s2)CC1 [Compound B2]
- remaining percentage of the parent cores after 60 min [2]: 8.9%
- remaining percentage of the parent cores after 60 min [3]: 42.8%
- remaining percentage of the parent cores after 60 min [5]: 23.4%
- remaining percentage of the parent cores after 60 min [6]: 43.9%
- remaining percentage of the parent cores after 60 min [7]: 70.4%

- AUC(0-t) (in vivo [1]; iv, 0.3 mg/kg): 28.7 ng·h/mL
- clearance (in vivo [1]; iv, 0.3 mg/kg): 151 mL/min/kg
- AUC(0-t) (in vivo [1]; po, 2 mg/kg): 9.94 ng·h/mL
- bioavailability (in vivo [1]; po, 2 mg/kg): 5.2%
Structure (SMILES): [2H]C([2H])([2H])C(O)(C#Cc1cccc(COc2cc(-c3cnn(C4CCN(C)CC4)c3)cnc2N)c1)C([2H])([2H])[2H] [D]
